Biological target: 5-hydroxytryptamine receptor 6 (Homo sapiens, UniProt P50406)
Test: Radioligand Binding Assay: The screening of the disclosed compounds for their potential ability to interact with serotonin 5-HT6 receptors was carried out b the method of radioligand binding.

Chain of 5-hydroxytryptamine receptor 6 (P50406 whole entry): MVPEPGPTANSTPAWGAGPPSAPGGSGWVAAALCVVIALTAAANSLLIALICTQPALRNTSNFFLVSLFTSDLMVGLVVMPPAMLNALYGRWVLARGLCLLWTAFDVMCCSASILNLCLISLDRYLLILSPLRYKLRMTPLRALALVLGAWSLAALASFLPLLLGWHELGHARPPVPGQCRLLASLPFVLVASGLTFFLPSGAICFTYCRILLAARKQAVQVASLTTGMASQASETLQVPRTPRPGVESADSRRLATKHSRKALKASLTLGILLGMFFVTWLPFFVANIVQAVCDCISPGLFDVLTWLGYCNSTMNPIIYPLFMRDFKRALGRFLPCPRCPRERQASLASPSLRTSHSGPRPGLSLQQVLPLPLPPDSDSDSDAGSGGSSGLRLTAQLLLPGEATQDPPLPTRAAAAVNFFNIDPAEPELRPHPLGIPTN

| SMILES | IC50 [nM] | Ki [nM] |
| --- | --- | --- |
| CNc1nn2c3c(cnc2c1S(=O)(=O)c1ccccc1)CN(C)CC3 | 0.837 |  |
| CNc1nn2cc3c(nc2c1S(=O)(=O)c1ccccc1)CCN(C)C3 | 7.02 | 3.26 |
